Measurements as given in patent EP0412158A1, “ONCOSTATIC DRUG” (priority 1987, dated 1988).

Assays:
[1] = system: methyl cholanthrene A; assay: Methyl cholanthrene A tumor, evaluation by elongation of period of survival (Examples 17 to 20); type: in vivo, female BALB/C mice; settings: 100 mg/kg ×9
Experimental: The aforementioned active compounds, E to H, were severally dissolved in distilled water to obtain aqueous solutions containing the compounds in a fixed concentration of 10 mg/ml. To female BALB/C mice (five weeks old) to which methyl cholanthrene A had been transplanted in a ratio of 1.0 x 10^5 cells per mouse, the aqueous solutions were continuously administered at a dose of 100 mg/kg of body weight for nine days by intraperitoneal injection to determine the mices periods of survival. For comparison, mice to which no aqueous solution was administered and mice to which aminonitrosourea was administered were similarly tested.

[2] = system: methyl cholanthrene A tumor; assay: Methyl cholanthrene A tumor, evaluation by weight of tumor (Examples 13 to 16); type: in vivo, female BALB/C mice; settings: for Average weight of tumor / Number of tumorless mice /total number of mice / T/control: 100 mg/kg; for Average weight of tumor / Number of tumorless mice /total number of mice: ip × 9; for T/control: ip×9, tumor weight
Experimental: (§1) Compound E, an alkali metal salt of polymolybdic acid (Example 13), and other compounds (Compounds F to H) mentioned above were severally dissolved in distilled water to obtain aqueous solutions containing the compounds in a fixed concentration of 10 mg/ml. These aqueous solutions were administered to female BALB/C mice (five weeks old) to which methyl cholanthrene A tumor had been transplanted to test the compounds for antineoplastic activity. To be morespecific, the methyl cholanthrene A was transplanted to the mice in a ratio of 1.0 x 10^5 cells per mouse and the aqueous solution was continuously administered (at a dose of 100 mg/kg of body weight) for nine days by intraperitoneal injection. On elapse of 14 days after the stop of the administration, the tumors in the mice were weighed. For comparison, mice to which the aqeuous solution was not administered and the mice to which aminonitrosourea was administered were similarly tested.

[3] = system: MM-46 breast cancer; assay: MM-46 breast cancer, evaluation by size of tumor (Examples 21 to 24); type: in vivo, female C3H/He mice; settings: 5 mg/kg
[4] = as above; type: in vivo, female C3H/He mice; settings: mouse, in vivo, ip; read-out: largest allowable dose
[5] = system: methyl cholanthrene A; assay: Methyl cholanthrene A tumor, evaluation by elongation of period of survival (Examples 17 to 20); type: in vivo, female BALB/C mice; settings: 5 mg/kg ×9
[6] = system: MM-46 breast cancer; type: in vivo, female C3H/He mice; settings: 5 mg/kg, ip × 9
[7] = system: methyl cholanthrene A; assay: Methyl cholanthrene A tumor, evaluation by elongation of period of survival (Examples 31, 34 and 35); type: in vivo, female BALB/C mice
Experimental: The active compounds, M to 0, mentioned above were severally dissolved in distilled water to obtain aqueous solutions containing the compounds in a fixed concentration of 10 mg/ml. To be specific, to female BALB/C mice (five weeks old) to which methyl cholanthrene A had been transplanted in a ratio of 1.0 x 10^5 cells per mouse, […] for 9 consecutive days to determine the mice's periods of survival. For comparison, mice to which no aqueous solution was administered and mice to which aminonitrosourea was administered were similarly tested.

[8] = system: methyl cholanthrene A tumor; assay: Methyl cholanthrene A tumor, evaluation by size of tumor (Examples 31 to 33); type: in vivo, female BALB/C mice
Experimental: (§2) A heteropoly acid salt, Na5[IM06O24]•34H2O (Compound M), and other compounds (Compounds N and O ) were severally dissolved in distilled water to obtain aqueous solutions containing the salts in a fixed concentration of 10 mg/ml. To female BALB/C mice (five weeks old) to which methyl cholanthrene A tumor had been transplanted, the aqueous solutions were administered to test the compounds for antineoplastic activity. To be specific, the methyl cholanthrene A was transplanted to the mice at a ratio of 1.0 x 10^5 cells per mouse and the aqueous solutions were administered ([…]) for 9 consecutive days by intraperitoneal injection. On elapse of 14 and 21 days after the stop of the administration, the sizes of tumors in the mice were measured. For comparison, mice to which no aqueous solution was administered and mice to which aminonitrosourea was administered were similarly tested.

[9] = as above; type: in vivo, female BALB/C mice; settings: mouse, in vivo, ip; read-out: largest allowable dose
Experimental: as §2

[10] = system: methyl cholanthrene A; assay: Methyl cholanthrene A tumor, evaluation by extension of period of survival (Examples 7 to 11); type: in vivo, female BALB/C mice; settings: 5 mg/kg; for Average number of days of survival / Number of toxically killed mice/total number of mice / T/control: ip×9; for Change in body weight: ip×9, D1~D9; for T/control: days of survival
Experimental: The aforementioned compounds, A to D, were severally dissolved in distilled water to obtain aqueous solutions containing the compounds in a fixed concentration of 10 mg/ml. To the female BALB/C mice (five weeks old) to which methyl cholanthrene A had been transplanted in a ratio of 1.0 x 10^5 cells per mouse, […] to determine the mices' periods of survival. For comparison, mice to which no antineoplastic drug was administered and mice to which aminonitroso urea was administered were similarly tested.

[11] = system: methyl cholanthrene A tumor; assay: Antineoplastic activity against transplanted methyl cholanthrene A tumor, evaluation by size of tumor (Examples 1 to 6); type: in vivo, female BALB/C mice; settings: 5 mg/kg, ip×9; for Change in body weight: body weight 13 days after transplantation; for T/control: tumor weight
Experimental: (§3) By dissolving alkylammonium salt of polymolybdic acid [NH3C3H7(iso)]s [Mo7O24] • 3H2O (Compound A) and other compounds (Compounds B to D) severally in distilled water, aqueous solutions containing the compounds in a fixed concentration of 10 mg/ml were obtained. These aqueous solutions were administered to female BALB/C mice (five weeks old) to which methyl cholanthrene A tumor had been transplanted to test the compounds for antineoplastic activity. To be specific, methyl cholanthrene A was transplanted to the mice in a ratio of 1.0 x 10^5 cells per mouse and the aqueous solutions were continuously administered to the mice by intraperitoneal injection ([…]) for nine days. On elapse of 14 days following the start of the administration, the tumors in the mice were measured. For comparison, mice to which no antineoplastic .drug was administered and mice to which aminonitroso urea was administered were tested by following the procedure described above.

[12] = as above; type: in vivo, female BALB/C mice; settings: mouse, in vivo, ip
Experimental: as §3

[13] = Methyl cholanthrene A tumor, evaluation by weight of tumor (Examples 13 to 16); type: in vivo, female BALB/C mice; settings: mouse, in vivo, ip; read-out: largest allowable dose
Experimental: as §1

[14] = system: methyl cholanthrene A tumor; assay: as above; type: in vivo, female BALB/C mice; settings: 5 mg/kg

## O.O.O.O.[K+].[K+].[K+].[K+].[K+].[K+].[O]=[Mo](=[O])([O-])[O][Mo](=[O])(=[O])[O][Mo](=[O])([O-])([O-])[O][Mo](=[O])(=[O])[O][Mo](=[O])([O-])([O-])[O][Mo](=[O])(=[O])[O][Mo](=[O])(=[O])[O-] [Compound E, K6 [Mo7O24] • 4H2O]
[1]
  Average number of days of survival: 35.5±2.2(8) days
  Number of toxically killed mice/total number of mice: 0/8
  Ratio of prolonging life: 57.8%
[2]
  Average weight of tumor: 1281.6±184.2(8) mg
  Number of tumorless mice /total number of mice: 0/8
  T/control: 0.498
[2]; 100 mg/kg.ip for nine days, judged by increase of body weight, result in words
  toxicity: very slight toxicity

## O.O.O.O.[Na+].[Na+].[Na+].[Na+].[Na+].[Na+].[O]=[Mo](=[O])([O-])[O][Mo](=[O])(=[O])[O][Mo](=[O])([O-])([O-])[O][Mo](=[O])(=[O])[O][Mo](=[O])([O-])([O-])[O][Mo](=[O])(=[O])[O][Mo](=[O])(=[O])[O-] [Compound F, Na6 [Mo7O24] • 4H2O]
[1]
  Average number of days of survival: 35.0±5.7(8) days
  Number of toxically killed mice/total number of mice: 0/8
  Ratio of prolonging life: 55.6%
[2]
  Average weight of tumor: 1592.8±257.6(8) mg
  Number of tumorless mice /total number of mice: 0/8
  T/control: 0.618

## O.O.O.O.[Li+].[Li+].[Li+].[Li+].[Li+].[Li+].[O]=[Mo](=[O])([O-])[O][Mo](=[O])(=[O])[O][Mo](=[O])([O-])([O-])[O][Mo](=[O])(=[O])[O][Mo](=[O])([O-])([O-])[O][Mo](=[O])(=[O])[O][Mo](=[O])(=[O])[O-] [Compound G, Li6 [Mo7O24] • 4H2O]
[1]
  Average number of days of survival: 31.6±5.4(8****) days
  Number of toxically killed mice/total number of mice: 0/8
  Ratio of prolonging life: 40.4%
[2]
  Average weight of tumor: 1760±254.6(8) mg
  Number of tumorless mice /total number of mice: 0/8
  T/control: 0.683

## O.O.O.O.[Cs+].[Cs+].[Cs+].[Cs+].[Cs+].[Cs+].[O]=[Mo](=[O])([O-])[O][Mo](=[O])(=[O])[O][Mo](=[O])([O-])([O-])[O][Mo](=[O])(=[O])[O][Mo](=[O])([O-])([O-])[O][Mo](=[O])(=[O])[O][Mo](=[O])(=[O])[O-] [Compound H, Cs6 [Mo7O24] • 4H2O]
[1]
  Average number of days of survival: 32.9±5.5(8) days
  Number of toxically killed mice/total number of mice: 0/8
  Ratio of prolonging life: 46.2%
[2]
  Average weight of tumor: 1599.5±340.6(8) mg
  Number of tumorless mice /total number of mice: 0/8
  T/control: 0.621

## Cc1ncc(CNC(=O)N(CCCl)N=O)c(N)n1 [reference compound]
[3]; ip × 9
  Average weight of tumor: 1364.3 ± 200.0 mg
  Number of tumorless mice /total number of mice: 0/8
[3]; ip×9, tumor weight
  T/control: 0.473
[4]
  MTD: 5 mg/kg
[5]
  Average number of days of survival: 28.0±3.1(9) days
  Number of toxically killed mice/total number of mice: 0/8
  Ratio of prolonging life: 24.4%
[6]
  Average number of days of survival: 29.1±2.1(8) days
  Average weight of tumor after 14 days: 1364.3 ± 200.0 mg
  Ratio of elongation of life (5): 76.4
[7]; 2.5 mg/kg, ip × 9 (D1~D9)
  Average number of days of survival ±SE: 31.13±1.14(8) days
  ILS: 18%
[7]; 7.5 mg/kg, ip × 9
  Average number of days of survival ±SE: 36.67±1.07(9) days
  ILS: 47.3%
[7]; 7.5 mg/kg, ip × 9, observed 60 days after transplantation
  Number of mice of no tumor/total number of mice: 0/9
[8]; 2.5 mg/kg, ip × 9 (D1~D9)
  Average weight of tumor after elapse of 14 days ± SE: 347.9 ± 63.8 mg
[8]; 2.5 mg/kg, ip × 9 (D1~D9), tumor weight after 14 days
  T/C: 0.405
[8]; 7.5 mg/kg, ip × 9, tumor weight after 14 days
  T/C: 0.367
[8]; 7.5 mg/kg, ip × 9, tumor weight after 21 days
  T/C: 0.444
[9]
  MTD: 7.5 mg/kg
[10]; No. 1
  Average number of days of survival: 35.8 ± 1.4 days
  Number of toxically killed mice/total number of mice: 0/8
  Change in body weight: +1.58 g
  T/control: 138.0
[10]; No. 2
  Average number of days of survival: 28.0±3.1(9) days
  Number of toxically killed mice/total number of mice: 0/8
  Change in body weight: +1.58 g
  T/control: 124.5
[11]; No. 1
  Average weight of tumor: 1151.1 ± 162.7 mg
  Number of tumorless mice /total number of mice: 0/8
  Change in body weight: +1,58 (D1~D9) g
  T/control: 0.430
[11]; No. 3
  Average weight of tumor: 1151.1 ± 162.7 mg
  Number of tumorless mice /total number of mice: 0/8
  Change in body weight: +1,58 (D1~D9) g
  T/control: 0.430
[12]
  MTD: 5 mg/kg
[13]
  MTD: 5 mg/kg
[14]; ip × 9
  Average weight of tumor: 1151.1 ± 162.7 mg
  Number of tumorless mice /total number of mice: 0/8
[14]; ip×9, tumor weight
  T/control: 0.447
[14]; ip×9 D1-D9, body weight 13 days after tumor transplantation
  Change in body weight: +1,58 g
